Test results taken from patent US9505730B2, “Mineralocorticoid receptor antagonists” (Merck Sharp & Dohme Corp., priority 2011, dated 2016).

Each compound was assayed against T1, full-length human Mineralocorticoid Receptor (MR) (Homo sapiens, UniProt P08235) (assay: human MR NH Pro assay (PathHunter Protein:Protein interaction assay, MR antagonism)). Details: PathHunter CHO-K1 cells overexpressing human MR; aldosterone 0.3 nM; 6 hours at 37° C.; luminescence; read-out: IC50 rating.
T1 construct: host or cells: PathHunter CHO-K1 cells
T1 sequence (P08235 1-984): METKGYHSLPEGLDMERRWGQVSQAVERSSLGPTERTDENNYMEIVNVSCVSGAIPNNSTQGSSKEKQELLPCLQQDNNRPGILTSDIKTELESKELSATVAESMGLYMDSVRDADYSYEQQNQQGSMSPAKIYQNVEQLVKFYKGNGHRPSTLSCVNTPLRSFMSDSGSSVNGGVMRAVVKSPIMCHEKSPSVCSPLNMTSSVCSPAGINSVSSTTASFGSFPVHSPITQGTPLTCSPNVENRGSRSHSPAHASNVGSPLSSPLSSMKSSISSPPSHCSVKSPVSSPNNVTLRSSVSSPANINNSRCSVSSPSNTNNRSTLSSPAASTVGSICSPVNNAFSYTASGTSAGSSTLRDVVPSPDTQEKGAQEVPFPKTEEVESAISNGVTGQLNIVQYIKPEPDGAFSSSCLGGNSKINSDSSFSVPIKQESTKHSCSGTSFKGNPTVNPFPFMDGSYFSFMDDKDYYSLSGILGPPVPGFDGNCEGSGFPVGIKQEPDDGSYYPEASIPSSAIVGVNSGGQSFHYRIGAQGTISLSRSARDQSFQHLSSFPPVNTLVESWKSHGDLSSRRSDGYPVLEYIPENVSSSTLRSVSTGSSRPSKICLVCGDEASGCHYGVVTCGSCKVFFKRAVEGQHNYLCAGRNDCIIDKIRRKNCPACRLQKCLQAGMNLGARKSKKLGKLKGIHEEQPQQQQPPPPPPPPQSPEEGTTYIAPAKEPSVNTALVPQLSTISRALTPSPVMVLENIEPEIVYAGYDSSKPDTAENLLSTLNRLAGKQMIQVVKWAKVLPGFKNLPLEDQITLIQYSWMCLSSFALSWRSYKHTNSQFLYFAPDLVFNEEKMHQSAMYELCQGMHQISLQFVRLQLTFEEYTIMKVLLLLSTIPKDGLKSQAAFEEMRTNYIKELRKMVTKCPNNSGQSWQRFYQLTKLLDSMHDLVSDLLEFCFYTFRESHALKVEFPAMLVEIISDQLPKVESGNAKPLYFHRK
Format: cell-based
Method: The activity of the compounds of the present invention regarding mineralocorticoid receptor antagonism was evaluated using the following assay.
Assessment of Mr Potency in Hmr Nh Pro Assay
The human MR NH Pro assay is a commercially available PathHunter™ Protein: Protein interaction assay (DiscoveRx; http://www.discoverx.com/nhrs/prod-nhrs.php) that measures the ability of compounds to antagonize full-length human Mineralocorticoid Receptor (MR) binding to a coactivator peptide. PathHunter™ CHO-K1 cells that overexpress human MR (Cat #93-0456C2, Lot No: 09B0913) were cultured in growth media (F12K w/Glutamine and phenol red (Gibco 11765-047) supplemented with 10% HI FBS (Gibco 16000); 0.25 mg/ml Hygromycin in PBS (Invitrogen 10687-010, 50 mg/ml); 100 I.U./mL and 100 μg/mL Pen/Strep (Gibco 15140-122); 0.6 mg/mL Geneticin).
Compounds were assessed for MR antagonist activity by incubating the cells with a titrating dose of compound in F12K w/Glutamine and phenol red culture media (Invitrogen 11765-047) supplemented with 1% Charcoal/Dextran Treated FBS (Hyclone #SH30068.01) and aldosterone (0.3 nM) for 6 hours at 37° C.
• F12K w/Glutamine and phenol red (Gibco 11765-047) • 10% HI FBS (Gibco 16000) • 0.25 mg/ml Hygromycin in PBS (Invitrogen 10687-010, 50 mg/ml) • 100 I.U./mL and 100 μg/mL Pen/Strep (Gibco 15140-122) • 0.6 mg/mL Geneticin (Gibco 10131, 50 mg/ml) 2. Assay media: • F12K w/Glutamine and phenol red (Invitrogen 11765-047) • 1% Charcoal/Dextran Treated FBS (Hyclone #SH30068.01) 3. 3× PathHunter Detection Reagents (Cat#93-0001) (need ˜6 ml/plate). […] Control Agonist: Aldosterone: Sigma cat #A9477 • Prepare stock solution—10 μM in DMSO kept at −20 C • for assay, dilute in assay media to 1.8 or 6 nM (6× of final concentration=about 0.3 nM to about 1.0 nM) 5. Cell line: PathHunter CHO-K1 MR cells Cat #93-0456C2, Lot No: 09B0913, from operation liquid nitrogen stock. 6. Control Antagonist: Spironolactone: Sigma #S-3378 and Eplerenone Sigma #107724-20-9 (10 mM stock concentration also prepared in DMSO and stored at −20° C.). Methods: Assay Set up and Calculations: • 1. Cells were grown in F12+FBS+Hygromycin+pen/strep+Genetin. • 2. Cells were collected with 0.05% trypsin and the cell suspension was spun and resuspended in a volume of F12+1.5% CD-FBS and counted. • 3. The cells were resuspended to 4×10^5 cells/mL. • 4. Cells were (25 μL/well) added to the wells of a 384 well plate. • 5. The plate was then incubated at 37° C. over night in a humidified incubator with 5% CO2. • 6. Test compounds were titrated starting at 4.4 mM, 10-point titration in 1:3 dilution. • 7. Aldosterone was diluted in assay media to 1.8 nM or 6 nM from 10 μM stock (final concentration to be about 0.3 nM to about 1.0 nM). Protocol for 384 well plate format: 6 hr treatment: • 1. Plated 10K exponentially growing cells/well (25 μL) resuspended in assay media to each well using the Multidrop (Thermo Electron). Use white wall, clear bottom assay plates (Costar #3570) and incubate overnight at 37° C., 5% CO2. • 2. 0.25 μL 120× test compound (final DMSO concentration should be <1%) was added to each well n=2, 10 point titrations starting at 36.7 μM final concentration. • 3. 5 μL 6× agonist (final aldosterone concentration should be about 0.3 nM to about 1.0 nM) was added to all wells using the PlateMate Plus.
(ThermoFisher) (except those wells in columns 23 and 24) • 4. 5 μL of assay media was added to all wells in column 23 and 24. • 5. Plates were incubated 6 hrs at 37° C., 5% CO2. • 6. 15 μL 3× DiscoveRx detection reagent was added to each well. • 7. Plates were incubated for 1 hour at room temperature (plates stored in the dark). • 8. Plates were read on Envision (PerkinElmer) luminesence plate reader and analyzed using ADA. LC/MS method: (LC2M_Low/Med_Positive mode). LC Conditions: 5-98% CH3CN/H2O+v 0.1% TFA over 1.25 min; Flow Rate=1.5 mL/min, UV wavelength 254 nm; Column: Waters XTerra® MS C18 3.5 μm 2.1×20 mm IS™

SMILES | IC50
C[C@H](c1ccccc1)N1C(=O)N[C@](Cc2ccccc2)(C(=O)N2CCc3ccccc3C2)C1=O (single isomer, unassigned) [Compound 23] | 500 to 4500 nM
C[C@H](c1ccc(F)cc1)N1C(=O)O[C@](Cc2ccc(F)cc2)(C(=O)NCc2ccc(Cl)c(Cl)c2)C1=O [Compound 2, (5R)-N-(3,4-Dichlorobenzyl)-5-(4-fluorobenzyl)-3-[(1R)-1-(4-fluorophenyl)ethyl]-2,4-dioxo-1,3-oxazolidine-5-carboxamide] | 100 to 500 nM
C[C@H](c1ccc(F)cc1)N1C(=O)O[C@](Cc2ccccc2)(C(=O)Nc2ccc(F)cc2)C1=O [Compound 15, (5R)-5-Benzyl-N-(4-fluorophenyl)-3-[(1R)-1-(4-fluorophenyl)ethyl]-2,4-dioxo-1,3-oxazolidine-5-carboxamide] | 100 to 500 nM
C[C@H](c1ccccc1)N1C(=O)O[C@](Cc2ccccc2)(C(=O)N2CCc3ccccc3C2)C1=O [Compound 21, (5R)-Benzyl-5-(3,4-dihydroisoquinolin-2(1H)-ylcarbonyl)-3-[(1R)-1-phenylethyl]-1,3-oxazolidine-2,4-dione] | 100 to 500 nM
C[C@H](C1CCCCC1)N1C(=O)O[C@](Cc2ccc(F)cc2)(C(=O)Nc2ccc(Cl)cc2)C1=O [Compound 16, (5R)-N-(4-Chlorophenyl)-3-[(1R)-1-cyclohexylethyl]-5-(4-fluorobenzyl)-2,4-dioxo-1,3-oxazolidine-5-carboxamide] | 100 to 500 nM
C[C@H](c1ccc(F)cc1)N1C(=O)O[C@](Cc2ccccc2)(C(=O)Nc2ccccc2)C1=O [Compound 19, (5R)-5-Benzyl-3-[(1R)-1-(4-fluorophenyl)ethyl]-2,4-dioxo-N-phenyl-1,3-oxazolidine-5-carboxamide] | 100 to 500 nM
C[C@H](c1ccc(F)cc1)N1C(=O)O[C@](Cc2ccccc2)(C(=O)Nc2cccnc2)C1=O [Compound 20] | 100 to 500 nM
C[C@H](C1CCCCC1)N1C(=O)O[C@](Cc2ccccc2)(C(=O)NCc2ccc(Cl)c(Cl)c2)C1=O [Compound 17, (5R)-5-Benzyl-3-[(1R)-1-cyclohexylethyl]-N-(3,4-dichlorobenzyl)-2,4-dioxo-1,3-oxazolidine-5-carboxamide] | 100 to 500 nM
C[C@H](c1ccccc1)N1C(=O)O[C@](Cc2ccccc2)(C(=O)N[C@H]2C[C@H](c3ccccc3)C2)C1=O [Compound 4, (5R)-5-Benzyl-2,4-dioxo-N-(trans-3-phenylcyclobutyl)-3-[(1R)-1-phenylethyl]-1,3-oxazolidine-5-carboxamide] | 100 to 500 nM

Results, then the compound that gave them:

IC50 | SMILES
100 to 500 nM | C[C@H](c1ccc(F)cc1)N1C(=O)O[C@](Cc2ccccc2)(C(=O)Nc2ccc(Cl)cc2)C1=O [Compound 14, (5R)-5-Benzyl-N-(4-chlorophenyl)-3-[(1R)-1-(4-fluorophenyl)ethyl]-2,4-dioxo-1,3-oxazolidine-5-carboxamide]
< 100 nM | COc1cc(CNC(=O)[C@@]2(Cc3ccccc3)OC(=O)N([C@H](C)c3ccc(Cl)cc3)C2=O)cc(OC)c1 [Compound 9, (5R)-5-Benzyl-3-[(1R)-1-(4-chlorophenyl)ethyl]-N-(3,5-dimethoxybenzyl)-2,4-dioxo-1,3-oxazolidine-5-carboxamide]
100 to 500 nM | C[C@H](c1ccc(F)cc1)N1C(=O)O[C@](Cc2ccccc2)(C(=O)NC(c2cccc(Cl)c2)C(F)(F)F)C1=O (stereo partly drawn) [Compound 18, (5R)-5-Benzyl-N-[1-(3-chlorophenyl)-2,2,2-trifluoroethyl]-3-[(1R)-1-(4-fluorophenyl)ethyl]-2,4-dioxo-1,3-oxazolidine-5-carboxamide]
100 to 500 nM | COc1cc(CNC(=O)[C@@]2(Cc3ccccc3)OC(=O)N(C3CCCc4ccccc43)C2=O)cc(OC)c1 (stereo partly drawn) [Compound 7, (5R)-5-Benzyl-N-(3,5-dimethoxybenzyl)-2,4-dioxo-3-(1,2,3,4-tetrahydronaphthalen-1-yl)-1,3-oxazolidine-5-carboxamide]
< 100 nM | COc1cc(CNC(=O)[C@@]2(Cc3ccccc3)OC(=O)N([C@H](C)c3ccccc3)C2=O)cc(OC)c1 [Compound 1, (5R)-Benzyl-N-(3,5-dimethoxybenzyl)-2,4-dioxo-3-[(1R)-1-phenylethyl]-1,3-oxazolidine-5-carboxamide]
100 to 500 nM | COc1cc(CNC(=O)[C@@]2(Cc3ccccc3)OC(=O)N(C(C)C)C2=O)cc(OC)c1 [Compound 6, (5R)-5-Benzyl-N-(3,5-dimethoxybenzyl)-3-(1-methylethyl)-2,4-dioxo-1,3-oxazolidine-5-carboxamide]
100 to 500 nM | COc1cc(CNC(=O)[C@@]2(Cc3ccc(F)cc3)OC(=O)N([C@H](C)c3ccccc3)C2=O)cc(OC)c1 [Compound 3, (5R)-N-(3,5-Dimethoxybenzyl)-5-(4-fluorobenzyl)-2,4-dioxo-3-[(1R)-1-phenylethyl]-1,3-oxazolidine-5-carboxamide]
500 to 4500 nM | COc1cc(CNC(=O)C2(Cc3cccc(Cl)c3)OC(=O)N([C@H](C)c3ccccc3)C2=O)cc(OC)c1 (stereo partly drawn) [Compound 5, 5-(3-Chlorobenzyl)-N-(3,5-dimethoxybenzyl)-2,4-dioxo-3-[(1R)-1-phenylethyl]-1,3-oxazolidine-5-carboxamide]
100 to 500 nM | C[C@H](c1ccc(F)cc1)N1C(=O)O[C@](Cc2ccccc2)(C(=O)Nc2cccc(F)c2)C1=O [Compound 13, (5R)-5-Benzyl-N-(3-fluorophenyl)-3-[(1R)-1-(4-fluorophenyl)ethyl]-2,4-dioxo-1,3-oxazolidine-5-carboxamide]
